Results taken from ChEMBL document CHEMBL1201862, “PubChem BioAssay data set” (2004).
Active and inactive are the calls of the source.

Tests used:
[1] = microbe, parasite or virus in culture; assay type: functional; conditions: Mycobacterium tuberculosis
[2] = Vero cell cytotoxicity, dose response, cytotoxicity control for M. tuberculosis growth inhibitor project, Vero cells, purified and synthesized compounds, set 5 (AID 504909); assay type: functional; conditions: Mycobacterium tuberculosis
[3] = molecular target: T1, Corticotropin-releasing factor receptor 2/Corticotropin-releasing factor-binding protein (Homo sapiens, UniProt P24387+Q13324); test: Dose Response confirmation of uHTS hits for small molecule antagonists of the CRF-binding protein and CRF-R2 receptor complex.; assay type: functional; conditions: read-out: IC50_Mean
T1 sequence (Q13324 whole entry): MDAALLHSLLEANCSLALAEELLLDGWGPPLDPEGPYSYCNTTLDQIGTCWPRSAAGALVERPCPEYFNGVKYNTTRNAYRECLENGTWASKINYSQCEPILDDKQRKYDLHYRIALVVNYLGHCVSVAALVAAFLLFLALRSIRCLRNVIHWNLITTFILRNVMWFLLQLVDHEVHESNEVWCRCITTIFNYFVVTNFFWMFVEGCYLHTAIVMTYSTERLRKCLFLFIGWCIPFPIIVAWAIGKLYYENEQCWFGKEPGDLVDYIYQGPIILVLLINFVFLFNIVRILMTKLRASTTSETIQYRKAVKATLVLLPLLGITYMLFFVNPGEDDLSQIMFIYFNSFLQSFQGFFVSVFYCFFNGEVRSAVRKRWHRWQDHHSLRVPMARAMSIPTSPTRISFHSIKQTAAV
T1 sequence (P24387 whole entry): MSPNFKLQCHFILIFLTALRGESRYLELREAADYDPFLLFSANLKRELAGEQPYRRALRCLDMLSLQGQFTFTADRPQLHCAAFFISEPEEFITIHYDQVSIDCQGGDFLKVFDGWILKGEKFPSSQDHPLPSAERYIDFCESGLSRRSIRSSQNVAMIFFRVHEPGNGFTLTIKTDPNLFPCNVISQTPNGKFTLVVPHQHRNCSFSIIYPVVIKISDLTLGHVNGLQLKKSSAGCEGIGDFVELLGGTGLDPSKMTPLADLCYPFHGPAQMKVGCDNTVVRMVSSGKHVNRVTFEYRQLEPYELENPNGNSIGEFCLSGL

[4] = A Cell Based Secondary Assay to Explore Cytotoxicity in THP-1 Cells of Compounds that Modulate Mycobacterium tuberculosis in Media Containing Glycerol versus Media without Glycerol (2).; assay type: functional
[5] = Vero cell cytotoxicity, cytotoxicity control for M. tuberculosis inhibitor project, purified and synthesized samples, set 3 (AID 504684); assay type: functional
[6] = HepG2 cell cytotoxicity, cytotoxicity control, set 4 (AID 504910); assay type: functional; conditions: Mycobacterium tuberculosis
[7] = THP-1 cell cytotoxicity, cytotoxicity control, set 4 (AID 504911); assay type: functional; conditions: Mycobacterium tuberculosis
[8] = A Cell Based Secondary Assay to Explore Cytotoxicity in HepG2 Cells of Compounds that Modulate Mycobacterium tuberculosis in Media Containing Glycerol versus Media without Glycerol (2).; assay type: functional
[9] = molecular target: T1, Corticotropin-releasing factor receptor 2/Corticotropin-releasing factor-binding protein; test: activators of CRF receptor 2 with binding protein – uHTS hits, confirmation (AID 602473); assay type: functional; conditions: read-out: EC50_Mean
[10] = HepG2 cell cytotoxicity, dose response, cytotoxicity control, set 3 (AID 504853); assay type: functional; conditions: Mycobacterium tuberculosis
[11] = THP-1 cell cytotoxicity, dose response, cytotoxicity control, set 3 (AID 504852); assay type: functional; conditions: Mycobacterium tuberculosis
[12] = Vero cell cytotoxicity, dose response, cytotoxicity control for M. tuberculosis growth inhibitor project, Vero cells, purified and synthesized compounds, set 4 (AID 504854); assay type: functional; conditions: Mycobacterium tuberculosis
[13] = blockers of CRF-binding protein–CRF-R2 complex – cell-based, uHTS hits, 384-well, dose response (AID 651639); assay type: functional, Homo sapiens; conditions: read-out: IC50_Mean
[14] = molecular target: Protein kinase C theta type (Homo sapiens, UniProt Q04759); test: Navigating the Kinome. Panel member name: PRKCQ; assay type: functional
[15] = molecular target: Dual specificity protein kinase CLK2 (Homo sapiens, UniProt P49760); assay type: functional
Dual specificity protein kinase CLK2, sequence (P49760 whole entry): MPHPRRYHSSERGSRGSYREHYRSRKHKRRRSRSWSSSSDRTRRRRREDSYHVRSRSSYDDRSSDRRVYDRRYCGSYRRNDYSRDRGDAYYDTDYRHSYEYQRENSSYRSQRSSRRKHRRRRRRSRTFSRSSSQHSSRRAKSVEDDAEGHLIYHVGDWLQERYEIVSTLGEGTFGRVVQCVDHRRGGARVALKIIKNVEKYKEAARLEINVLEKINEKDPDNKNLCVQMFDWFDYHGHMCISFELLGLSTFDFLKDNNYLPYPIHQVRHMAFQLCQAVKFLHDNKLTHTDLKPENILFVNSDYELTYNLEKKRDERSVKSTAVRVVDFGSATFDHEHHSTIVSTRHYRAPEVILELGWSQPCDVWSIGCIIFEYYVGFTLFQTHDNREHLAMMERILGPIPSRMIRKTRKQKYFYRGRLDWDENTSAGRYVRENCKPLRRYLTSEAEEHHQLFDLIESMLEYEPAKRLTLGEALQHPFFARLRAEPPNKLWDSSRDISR

[16] = molecular target: Dual specificity mitogen-activated protein kinase kinase 1 (Homo sapiens, UniProt Q02750); test: Navigating the Kinome. Panel member name: MAP2K1; assay type: functional
Dual specificity mitogen-activated protein kinase kinase 1, sequence (Q02750 whole entry): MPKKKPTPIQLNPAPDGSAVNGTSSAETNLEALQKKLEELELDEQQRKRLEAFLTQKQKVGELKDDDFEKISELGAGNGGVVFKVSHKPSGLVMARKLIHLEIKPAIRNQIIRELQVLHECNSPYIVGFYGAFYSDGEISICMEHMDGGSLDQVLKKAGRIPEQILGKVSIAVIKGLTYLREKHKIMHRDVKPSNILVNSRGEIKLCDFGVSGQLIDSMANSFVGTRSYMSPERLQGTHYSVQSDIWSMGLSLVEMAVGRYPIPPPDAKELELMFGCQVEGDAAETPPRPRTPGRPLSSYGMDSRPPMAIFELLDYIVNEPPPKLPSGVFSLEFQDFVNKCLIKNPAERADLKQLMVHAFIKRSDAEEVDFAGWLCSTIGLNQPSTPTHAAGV

[17] = molecular target: Tyrosine-protein kinase JAK2 (Homo sapiens, UniProt O60674); assay type: functional;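 also: JAK2 tested as one member of a kinase panel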
[18] = molecular target: Serine/threonine-protein kinase TBK1 (Homo sapiens, UniProt Q9UHD2); test: Navigating the Kinome. Panel member name: TBK1; assay type: functional
Serine/threonine-protein kinase TBK1, sequence (Q9UHD2 whole entry): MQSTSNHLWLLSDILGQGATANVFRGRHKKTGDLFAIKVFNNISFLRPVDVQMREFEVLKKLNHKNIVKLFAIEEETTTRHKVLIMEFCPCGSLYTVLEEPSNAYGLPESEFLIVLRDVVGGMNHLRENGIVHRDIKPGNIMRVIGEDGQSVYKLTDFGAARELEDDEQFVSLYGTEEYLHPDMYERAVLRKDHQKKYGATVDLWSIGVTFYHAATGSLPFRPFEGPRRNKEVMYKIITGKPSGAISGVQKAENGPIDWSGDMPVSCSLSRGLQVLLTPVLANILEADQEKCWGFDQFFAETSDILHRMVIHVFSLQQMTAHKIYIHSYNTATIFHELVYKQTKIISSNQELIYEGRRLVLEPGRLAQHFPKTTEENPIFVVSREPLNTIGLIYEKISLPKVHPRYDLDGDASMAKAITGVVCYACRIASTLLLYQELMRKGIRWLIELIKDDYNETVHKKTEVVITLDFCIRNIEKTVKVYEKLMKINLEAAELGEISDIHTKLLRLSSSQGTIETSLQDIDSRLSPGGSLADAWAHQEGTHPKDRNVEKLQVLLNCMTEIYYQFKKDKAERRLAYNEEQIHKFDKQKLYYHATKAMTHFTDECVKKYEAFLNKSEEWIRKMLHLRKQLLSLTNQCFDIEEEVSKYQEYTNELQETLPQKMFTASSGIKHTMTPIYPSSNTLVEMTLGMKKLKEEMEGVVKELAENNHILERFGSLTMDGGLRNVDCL

[19] = molecular target: 5'-AMP-activated protein kinase catalytic subunit alpha-1 (Homo sapiens, UniProt Q13131); assay type: functional
[20] = molecular target: ALK tyrosine kinase receptor (Homo sapiens, UniProt Q9UM73); assay type: functional;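 also: ALK tested as one member of a kinase panel screen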
[21] = molecular target: Proto-oncogene tyrosine-protein kinase receptor Ret (Homo sapiens, UniProt P07949); assay type: functional;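 also: measured within a kinome-wide profiling panel, RET as the panel member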
Proto-oncogene tyrosine-protein kinase receptor Ret, sequence (P07949 whole entry): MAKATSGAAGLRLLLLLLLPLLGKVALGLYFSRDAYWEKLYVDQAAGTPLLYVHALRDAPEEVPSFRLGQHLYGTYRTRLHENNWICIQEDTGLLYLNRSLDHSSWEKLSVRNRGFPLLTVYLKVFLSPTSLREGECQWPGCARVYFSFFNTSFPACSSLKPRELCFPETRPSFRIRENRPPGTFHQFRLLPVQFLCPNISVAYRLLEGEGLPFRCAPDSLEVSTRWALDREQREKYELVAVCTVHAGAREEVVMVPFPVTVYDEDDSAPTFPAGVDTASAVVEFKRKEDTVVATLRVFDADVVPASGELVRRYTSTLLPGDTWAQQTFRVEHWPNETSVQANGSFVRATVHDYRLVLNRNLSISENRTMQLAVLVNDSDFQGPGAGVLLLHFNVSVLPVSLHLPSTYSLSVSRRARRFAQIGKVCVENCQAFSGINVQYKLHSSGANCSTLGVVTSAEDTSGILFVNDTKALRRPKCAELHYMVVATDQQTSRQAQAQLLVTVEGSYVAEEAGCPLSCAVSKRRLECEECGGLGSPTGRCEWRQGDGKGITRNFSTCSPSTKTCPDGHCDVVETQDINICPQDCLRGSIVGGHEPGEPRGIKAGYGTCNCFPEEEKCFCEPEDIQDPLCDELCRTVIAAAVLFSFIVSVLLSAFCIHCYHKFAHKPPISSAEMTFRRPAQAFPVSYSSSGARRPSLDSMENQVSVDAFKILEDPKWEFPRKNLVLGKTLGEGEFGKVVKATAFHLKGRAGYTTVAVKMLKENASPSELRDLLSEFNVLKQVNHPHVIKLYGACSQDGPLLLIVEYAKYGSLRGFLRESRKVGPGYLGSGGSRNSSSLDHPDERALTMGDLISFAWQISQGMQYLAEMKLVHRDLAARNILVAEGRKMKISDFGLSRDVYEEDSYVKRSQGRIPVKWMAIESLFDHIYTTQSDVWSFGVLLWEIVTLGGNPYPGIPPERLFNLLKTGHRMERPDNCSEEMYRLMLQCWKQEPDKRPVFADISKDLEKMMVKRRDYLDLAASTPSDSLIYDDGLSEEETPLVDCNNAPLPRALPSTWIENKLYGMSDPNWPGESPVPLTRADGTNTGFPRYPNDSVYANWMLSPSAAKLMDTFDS

[22] = molecular target: Tyrosine-protein kinase receptor TYRO3 (Homo sapiens, UniProt Q06418); assay type: functional;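 also: TYRO3 value obtained as one member of a kinome-wide profiling panel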
[23] = molecular target: Serine/threonine-protein kinase D3 (Homo sapiens, UniProt O94806); assay type: functional;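 also: determined within a kinase panel screen, with PRKCN as the panel member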
[24] = molecular target: Tyrosine-protein kinase Lck (Homo sapiens, UniProt P06239); assay type: functional;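 also: lck was assayed as one member of a kinase panel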
[25] = molecular target: Death-associated protein kinase 3 (Homo sapiens, UniProt O43293); assay type: functional;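 also: measured as one member of a kinome-wide profiling panel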
Activin receptor type-1 = Activin receptor type-1 (Homo sapiens, UniProt Q04771); test: Navigating the Kinome. Panel member name: ACVR1; assay type: functional
[26] = molecular target: Mitogen-activated protein kinase 8 (Homo sapiens, UniProt P45983); assay type: functional;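 also: value comes from one member of a kinome-wide kinase profiling panel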
[27] = molecular target: Serine/threonine-protein kinase pim-1 (Homo sapiens, UniProt P11309); assay type: functional
Aurora kinase A = Aurora kinase A (Homo sapiens, UniProt O14965); assay type: functional;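 also: value from the Navigating the Kinome kinase panel profiling, panel entry STK6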
[28] = molecular target: Tyrosine-protein kinase BTK (Homo sapiens, UniProt Q06187); assay type: functional
[29] = molecular target: Mast/stem cell growth factor receptor Kit (Homo sapiens, UniProt P10721); assay type: functional;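 also: KIT entry within a kinase panel assay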
[30] = molecular target: Fibroblast growth factor receptor 1 (Homo sapiens, UniProt P11362); assay type: functional
[31] = molecular target: Tyrosine-protein kinase JAK3 (Homo sapiens, UniProt P52333); assay type: functional
[32] = molecular target: Mitogen-activated protein kinase 9 (Homo sapiens, UniProt P45984); assay type: functional;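 also: value from a kinome panel profiling assay, MAPK9 panel entry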
[33] = molecular target: Serine/threonine-protein kinase N2 (Homo sapiens, UniProt Q16513); assay type: functional
[34] = molecular target: Serine/threonine-protein kinase TAO1 (Homo sapiens, UniProt Q7L7X3); assay type: functional
Serine/threonine-protein kinase TAO1, sequence (Q7L7X3 whole entry): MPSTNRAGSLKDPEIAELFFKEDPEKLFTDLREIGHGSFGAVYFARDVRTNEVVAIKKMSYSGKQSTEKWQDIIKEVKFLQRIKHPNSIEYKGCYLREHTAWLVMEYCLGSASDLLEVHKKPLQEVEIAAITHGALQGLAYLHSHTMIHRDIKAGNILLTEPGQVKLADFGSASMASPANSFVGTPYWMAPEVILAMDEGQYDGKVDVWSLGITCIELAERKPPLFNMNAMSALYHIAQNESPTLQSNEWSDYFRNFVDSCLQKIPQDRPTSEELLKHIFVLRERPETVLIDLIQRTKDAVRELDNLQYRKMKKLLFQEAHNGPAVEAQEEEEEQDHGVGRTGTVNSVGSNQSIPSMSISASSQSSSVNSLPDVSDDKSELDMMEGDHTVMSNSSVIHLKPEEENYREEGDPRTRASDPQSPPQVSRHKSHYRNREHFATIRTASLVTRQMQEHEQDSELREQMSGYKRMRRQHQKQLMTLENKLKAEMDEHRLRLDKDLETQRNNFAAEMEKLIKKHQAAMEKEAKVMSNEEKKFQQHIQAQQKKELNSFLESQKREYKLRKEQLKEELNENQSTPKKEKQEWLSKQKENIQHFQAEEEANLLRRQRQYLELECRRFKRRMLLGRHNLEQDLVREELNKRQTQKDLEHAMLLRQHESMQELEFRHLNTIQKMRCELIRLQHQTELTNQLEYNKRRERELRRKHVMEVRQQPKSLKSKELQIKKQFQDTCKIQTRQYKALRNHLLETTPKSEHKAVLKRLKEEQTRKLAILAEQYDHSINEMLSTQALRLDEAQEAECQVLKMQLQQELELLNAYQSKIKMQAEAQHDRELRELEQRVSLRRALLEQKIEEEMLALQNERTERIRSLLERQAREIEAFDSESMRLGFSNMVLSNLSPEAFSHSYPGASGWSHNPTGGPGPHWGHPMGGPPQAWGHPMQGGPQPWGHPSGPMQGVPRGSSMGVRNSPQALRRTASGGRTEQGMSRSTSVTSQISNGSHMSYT

[35] = molecular target: High affinity nerve growth factor receptor (Homo sapiens, UniProt P04629); assay type: functional;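 also: NTRK1 tested as one member of a kinome-wide profiling panel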
[36] = molecular target: Glycogen synthase kinase-3 alpha (Homo sapiens, UniProt P49840); assay type: functional;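 also: GSK3A result taken from a broad kinome-wide kinase panel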
[37] = molecular target: Mitogen-activated protein kinase kinase kinase kinase 2 (Homo sapiens, UniProt Q12851); assay type: functional;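 also: measured as one member of a kinome-wide kinase panel, with MAP4K2 as the panel entry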
Activated CDC42 kinase 1 = Activated CDC42 kinase 1 (Homo sapiens, UniProt Q07912); test: Navigating the Kinome. Panel member name: ACK1; assay type: functional
[38] = molecular target: Receptor-type tyrosine-protein kinase FLT3 (Homo sapiens, UniProt P36888); assay type: functional;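 also: FLT3 was tested as one member of a kinome-wide kinase panel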
[39] = molecular target: Tyrosine-protein kinase ABL1 (Homo sapiens, UniProt P00519); assay type: functional
[40] = molecular target: Vascular endothelial growth factor receptor 2 (Homo sapiens, UniProt P35968); assay type: functional
[41] = molecular target: G protein-coupled receptor kinase 5 (Homo sapiens, UniProt P34947); test: Navigating the Kinome. Panel member name: GPRK5; assay type: functional
[42] = molecular target: Cyclin-dependent kinase 5 (Homo sapiens, UniProt Q00535); assay type: functional;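 also: CDK5 measured as one member of a kinase profiling panel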
[43] = molecular target: Insulin-like growth factor 1 receptor (Homo sapiens, UniProt P08069); test: Navigating the Kinome. Panel member name: IGF1R; assay type: functional
Insulin-like growth factor 1 receptor, sequence (P08069 31-736 limits assumed): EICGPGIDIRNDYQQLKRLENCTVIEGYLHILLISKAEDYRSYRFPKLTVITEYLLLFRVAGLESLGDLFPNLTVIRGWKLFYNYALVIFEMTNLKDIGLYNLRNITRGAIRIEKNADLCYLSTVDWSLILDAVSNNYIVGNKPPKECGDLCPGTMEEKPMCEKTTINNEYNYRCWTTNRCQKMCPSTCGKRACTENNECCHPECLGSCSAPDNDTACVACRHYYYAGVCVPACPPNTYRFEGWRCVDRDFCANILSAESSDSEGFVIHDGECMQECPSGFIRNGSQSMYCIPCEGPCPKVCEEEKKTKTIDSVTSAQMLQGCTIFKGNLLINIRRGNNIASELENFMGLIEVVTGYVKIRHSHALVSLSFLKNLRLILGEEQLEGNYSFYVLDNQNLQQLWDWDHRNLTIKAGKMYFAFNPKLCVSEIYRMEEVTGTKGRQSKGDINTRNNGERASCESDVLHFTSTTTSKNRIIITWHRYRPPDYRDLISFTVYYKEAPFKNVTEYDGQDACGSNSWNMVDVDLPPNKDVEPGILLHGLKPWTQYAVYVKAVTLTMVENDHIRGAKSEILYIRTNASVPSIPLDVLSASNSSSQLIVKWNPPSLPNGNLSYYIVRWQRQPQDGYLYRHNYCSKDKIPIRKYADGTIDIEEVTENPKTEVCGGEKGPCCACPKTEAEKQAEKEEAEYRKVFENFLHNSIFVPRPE
Insulin-like growth factor 1 receptor, sequence (P08069 741-1367 limits assumed): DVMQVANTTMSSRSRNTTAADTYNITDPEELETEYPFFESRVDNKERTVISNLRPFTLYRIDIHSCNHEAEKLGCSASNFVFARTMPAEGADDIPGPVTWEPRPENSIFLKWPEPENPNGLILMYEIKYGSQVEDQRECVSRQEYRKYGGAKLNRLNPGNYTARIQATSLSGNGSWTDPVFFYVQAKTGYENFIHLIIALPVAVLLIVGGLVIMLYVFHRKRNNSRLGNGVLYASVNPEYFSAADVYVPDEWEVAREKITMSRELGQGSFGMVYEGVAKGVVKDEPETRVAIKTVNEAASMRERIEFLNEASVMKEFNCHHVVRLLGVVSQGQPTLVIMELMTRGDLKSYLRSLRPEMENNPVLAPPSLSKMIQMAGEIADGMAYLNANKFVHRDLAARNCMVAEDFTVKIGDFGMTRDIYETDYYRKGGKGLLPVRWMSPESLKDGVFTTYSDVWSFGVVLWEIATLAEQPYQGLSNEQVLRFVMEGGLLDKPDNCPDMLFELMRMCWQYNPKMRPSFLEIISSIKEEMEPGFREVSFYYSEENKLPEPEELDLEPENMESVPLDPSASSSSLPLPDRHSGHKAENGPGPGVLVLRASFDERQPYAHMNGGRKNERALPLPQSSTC

[44] = molecular target: Dual specificity tyrosine-phosphorylation-regulated kinase 1B (Homo sapiens, UniProt Q9Y463); test: Navigating the Kinome. Panel member name: DYRK1B; assay type: functional
[45] = molecular target: cAMP-dependent protein kinase catalytic subunit PRKX (Homo sapiens, UniProt P51817); assay type: functional
[46] = molecular target: Platelet-derived growth factor receptor alpha (Homo sapiens, UniProt P16234); test: Navigating the Kinome. Panel member name: PDGFRA; assay type: functional
[47] = molecular target: Leucine-rich repeat serine/threonine-protein kinase 2 (Homo sapiens, UniProt Q5S007); assay type: functional;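 also: value from a broad kinome-wide panel profiling study in which LRRK2 was one of the kinases tested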
[48] = molecular target: Mitogen-activated protein kinase kinase kinase kinase 5 (Homo sapiens, UniProt Q9Y4K4); assay type: functional;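 also: measured as one member of a kinome-spanning kinase panel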
[49] = molecular target: Cyclin-dependent kinase 19 (Homo sapiens, UniProt Q9BWU1); test: Navigating the Kinome. Panel member name: CDC2L6; assay type: functional
[50] = molecular target: Tyrosine-protein kinase Fyn (Homo sapiens, UniProt P06241); assay type: functional
[51] = molecular target: Cyclin-dependent kinase 8 (Homo sapiens, UniProt P49336); test: Navigating the Kinome. Panel member name: CDK8; assay type: functional
[52] = molecular target: Vascular endothelial growth factor receptor 1 (Homo sapiens, UniProt P17948); assay type: functional;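 also: measured within a kinome-wide profiling panel, FLT1 as the panel member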
[53] = molecular target: Glycogen synthase kinase-3 beta (Homo sapiens, UniProt P49841); assay type: functional;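 also: value comes from a broad kinome profiling panel, with GSK3B as the panel member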
[54] = molecular target: Cyclin-dependent kinase 9 (Homo sapiens, UniProt P50750); assay type: functional;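 also: value from the CDK9 entry of a kinome-spanning kinase panel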
[55] = molecular target: BDNF/NT-3 growth factors receptor (Homo sapiens, UniProt Q16620); assay type: functional;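 also: NTRK2 measured as one member of a broad kinome-wide kinase profiling panel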
[56] = molecular target: cAMP-dependent protein kinase catalytic subunit alpha (Homo sapiens, UniProt P17612); assay type: functional
[57] = molecular target: Dual specificity protein kinase CLK4 (Homo sapiens, UniProt Q9HAZ1); assay type: functional
[58] = molecular target: Mitogen-activated protein kinase kinase kinase kinase 4 (Homo sapiens, UniProt O95819); assay type: functional
[59] = molecular target: Macrophage-stimulating protein receptor (Homo sapiens, UniProt Q04912); test: Navigating the Kinome. Panel member name: MST1R; assay type: functional
[60] = molecular target: Macrophage colony-stimulating factor 1 receptor (Homo sapiens, UniProt P07333); assay type: functional;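 also: value comes from the Navigating the Kinome screening panel, CSF1R member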
[61] = molecular target: Dual specificity mitogen-activated protein kinase kinase 2 (Homo sapiens, UniProt P36507); test: Navigating the Kinome. Panel member name: MAP2K2; assay type: functional
[62] = molecular target: Dual specificity tyrosine-phosphorylation-regulated kinase 1A (Homo sapiens, UniProt Q13627); assay type: functional;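 also: measured against DYRK1A as one member of a broad kinome profiling panel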
[63] = molecular target: Inhibitor of nuclear factor kappa-B kinase subunit epsilon (Homo sapiens, UniProt Q14164); test: Navigating the Kinome. Panel member name: IKBKE; assay type: functional
[64] = molecular target: Calcium/calmodulin-dependent protein kinase type II subunit alpha (Homo sapiens, UniProt Q9UQM7); test: Navigating the Kinome. Panel member name: CAMK2A; assay type: functional
[65] = molecular target: Leukocyte tyrosine kinase receptor (Homo sapiens, UniProt P29376); test: Navigating the Kinome. Panel member name: LTK; assay type: functional
[66] = molecular target: Mitogen-activated protein kinase 14 (Homo sapiens, UniProt Q16539); assay type: functional;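 also: part of a kinome-wide panel, MAPK14 entry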

Cc1ccc(C(=O)N/N=C(/CC(=O)c2cccs2)C(F)(F)F)cc1
inactive: EC50 [9] > 53 µM
active: CC50 [1] 28.2 µM | CC50 [2] 34.4 µM | IC50 [3] 4.48 µM | CC50 [4] 89.8 µM | CC50 [5] 61.7 µM | CC50 [6] 38.8 µM | CC50 [7] 46.3 µM | CC50 [8] 35 µM | CC50 [10] > 50 µM | CC50 [11] 51.4 µM | CC50 [12] 55 µM | IC50 [13] 16 µM

COc1cc2ncc3c(N)nc4c(C)c(N)ccc4c3c2cc1OC
active: Ki [23] 0.158 µM | Ki [25] 3.98 µM | Ki [47] 0.0631 µM | Ki [52] 3.16 µM
inactive: Ki [14] > 2.51 µM | Ki [15] > 3.98 µM | Ki [16] > 3.16 µM | Ki [17] > 2.51 µM | Ki [18] > 3.16 µM | Ki [19] > 3.16 µM | Ki [20] > 6.31 µM | Ki [21] > 3.16 µM | Ki [22] > 3.16 µM | Ki [24] > 6.31 µM | Ki (Activin receptor type-1) > 3.98 µM | Ki [26] > 5.01 µM | Ki [27] > 6.31 µM | Ki (Aurora kinase A) > 1.58 µM | Ki [28] > 6.31 µM | Ki [29] > 3.98 µM | Ki [30] > 3.98 µM | Ki [31] > 5.01 µM | Ki [32] > 3.98 µM | Ki [33] > 5.01 µM | Ki [34] > 6.31 µM | Ki [35] > 3.16 µM | Ki [36] > 3.98 µM | Ki [37] > 2.51 µM | Ki (Activated CDC42 kinase 1) > 3.98 µM | Ki [38] > 3.16 µM | Ki [39] > 3.98 µM | Ki [40] > 2.51 µM | Ki [41] > 3.98 µM | Ki [42] > 3.16 µM | Ki [43] > 2.51 µM | Ki [44] > 2.51 µM | Ki [45] > 3.16 µM | Ki [46] > 2.51 µM | Ki [48] > 3.98 µM | Ki [49] > 100 µM | Ki [50] > 6.31 µM | Ki [51] > 3.98 µM | Ki [53] > 3.98 µM | Ki [54] > 1.58 µM | Ki [55] > 3.98 µM | Ki [56] > 1.26 µM | Ki [57] > 2.51 µM | Ki [58] > 5.01 µM | Ki [59] > 3.98 µM | Ki [60] > 2.51 µM | Ki [61] > 3.98 µM | Ki [62] > 2 µM | Ki [63] > 3.16 µM | Ki [64] > 7.94 µM | Ki [65] > 2.51 µM | Ki [66] > 3.98 µM
